Source: publication PMC10020666, “Oxidation modulates LINGO2-induced inactivation of large conductance, Ca^2+-activated potassium channels” (The Journal of Biological Chemistry, 2023)
“Also recorded” adds a separate entry of the source. Where two headings read alike, the source gives them in different places. Square brackets hold non-standard residues; d marks the D form. Peptide text beside a SMILES is read from it. Met(O) = CS(=O)CC[C@H](N)C(=O)O

Tests used:
[1] = target: T1, BKα currents (BK channels) in HEK cell patches (Oryctolagus cuniculus, UniProt Q9BG98); assay: Inhibition of BKα currents by synthetic LINGO2 tail peptides (excised inside-out patch clamp); assay type: cell-based, rabbit; conditions: 1 μM Ca2+; for IC50Last5ms increase compared to WT LINGO2 peptide / 95% Confidence Intervals of IC50Last5ms: +160 mV; for IC50Last5ms increase compared to WT LINGO2 peptide: p < 0.001, extra sum of squares F-test; for IC50: step to +160 mV for 100 ms from -60 mV, inside-out patches, 37 °C, pH 7.2, Hill-Langmuir fit, mean ± SD; for Inactivation of BK currents by peptide: step to +160 mV, rate compared at 1 μM peptide
T1 construct: expressed in transfected cells; host or cells: HEK293 cells, transient transfection with lipofectamine (BKα cDNA plus GFP plasmid)
Protocol: (§1) All excised patch experiments were performed at 37 °C in 140 mM symmetrical K^+ solutions which contained 140 mM KCl, 10 mM glucose, 10 mM Hepes, and either 1 mM ethylene glycol-bis(β-amino ether)-N,N,N′,N′-tetraacetic acid (EGTA (for free [Ca^2+] 100 nM to 300 nM) or 1 mM hydroxyethylethylenediaminetriacetic acid (HEDTA for free [Ca^2+] 1 μM to 10 μM) and the pH of all solutions was adjusted to 7.2 with KOH. These solutions were made with double-distilled, deionized, filtered water from a MilliQ water purification system. The pipette solution contained 100 nM free Ca^2+. We used “Chelator” (https://www.ru.nl/animal/research/chelator/) to calculate the total amount of Ca^2+ required, as per Schoenmakers et al., ([40]) and free Ca^2+ concentrations were checked with a Ca^2+ sensitive electrode.
(§2) During experiments, the dish containing HEK cells was superfused with Hanks solution, which contained (in mM) 129.8 Na^+, 5.8 K^+, 135 Cl^-, 4.17 HCO3^-, 0.34 HPO4^2-, 0.44 H2PO4^-, 1.8 Ca^2+, 0.9 Mg^2+, 0.4 SO4^2-, 10 glucose, 2.9 sucrose, and 10 Hepes, and its pH was adjusted to 7.4 with NaOH. In addition, the patch under study was continuously superfused by means of a close delivery system consisting of a pipette (tip diameter 200 μm) placed approximately 300 μm away from the cell. This could be switched, with a dead-space time of around 5 s, to a solution containing a drug.
(§3) Electrodes were pulled from Corning borosilicate glass (1.5 mm O.D. × 0.86 mm I.D.) using a Sutter P-97 pipette puller and fire polished using a Narashige MF 83 microforge. Pipettes had resistances of 2 to 5 MΩ when filled with recording solutions and series resistance was compensated by up to 80%. Standard single-channel patch clamp recording methods were used. Voltage clamp commands were delivered via an Axopatch 200B patch clamp amplifier (Axon Instruments) connected to a Digidata 1322A AD/DA converter (Axon Instruments) interfaced to computers running pClamp software (Axon Instruments). Data was acquired at 100 KHz and filtered at 2 KHz or 5 KHz. Patches were held at either −60 mV or −100 mV and depolarized in 20 mV increments to 200 mV. Residual capacitance and leakage currents were subtracted using either a P/4 protocol or offline by manual leak subtraction.
(§4) The human LINGO2 transcript used [NM_001354575.2] was untagged in a pcDNA 3.1 vector (VectorBuilder). The α subunit of the rabbit BK channel was isolated from rabbit urethral smooth muscle and cloned using the pcDNA TOPO DNA cloning kit (Life Technologies). The identifiesd transcript corresponded to the ZERO variant of mouse BKα and to variant 2 (NM_002247.3) of human BKα. We used 100 ng ml^−1 cDNA for BKα only transfections, whereas a 100:500 ng ml^−1 cDNA ratio was used for BKα:LINGO2 and BKα:LINGO1 cotransfections for inside-out patch recordings. GFP (150 ng ml^−1) was included in all transfections except those used for Figure 2, C and D. cDNA was transiently transfected into HEK cells using lipofectamine. Site-directed mutagenesis used the Phusion kit (Thermo Fisher Scientific) method ([41]) and all mutations were confirmed by sequencing.
(§5) HEK293 cells were cultured in Dulbecco's modified Eagle's medium + MEM media containing 10% fetal bovine serum and 1% Penicillin-Streptomycin antibiotics at 37 °C, and 95% humidifying incubator containing 5% CO2. Subculturing was done by 0.05% Trypsin-EDTA solution.
Concentration–effect data were fitted with a Hill–Langmuir equation:[4] I/Icontrol=1/{1+10^ˆ(log[Drug]−logIC50)} where, I was the current recorded in the drug, Icontrol was the current in the absence of drug, IC50 was the half-maximal effective concentration, and [Drug] was the concentration variable.
All data is presented as mean ± SD and was analyzed with Prism software (GraphPad). Individual data points are also shown in bar charts. […]

[2] = tested on: BK:LINGO2 channels; assay: Effect of oxidizing/reducing agents on BK:LINGO2 currents (inside-out patch, step to +160 mV); assay type: cell-based, rabbit BKα, human LINGO2
Protocol: as §1, §2, §3, §4, §5
All data is presented as mean ± SD and was analyzed with Prism software (GraphPad). Individual data points are also shown in bar charts. Statistical differences were assessed using either paired or unpaired nonparametric tests (Wilcoxin signed-rank test, Mann–Whitney test), or the extra sum of squares F-test, as appropriate. Comparisons of three or more nonparametric data sets used Friedman’s test followed by Dunn’s test for multiple comparisons, whereas ANOVA was used for three or more parametric data sets. p < 0.05 was taken as significant.

[3] = target: α subunit of the rabbit BK channel (large conductance, Ca2+ and voltage-activated K+ channel) (rabbit)
[4] = n = 5 (M605 oxidized), 6 (M603 oxidized), 7 (both), read-out: IC50Last5ms (half maximal block of current amplitude in last 5 ms of pulse)

T1 sequence (Q9BG98 whole entry): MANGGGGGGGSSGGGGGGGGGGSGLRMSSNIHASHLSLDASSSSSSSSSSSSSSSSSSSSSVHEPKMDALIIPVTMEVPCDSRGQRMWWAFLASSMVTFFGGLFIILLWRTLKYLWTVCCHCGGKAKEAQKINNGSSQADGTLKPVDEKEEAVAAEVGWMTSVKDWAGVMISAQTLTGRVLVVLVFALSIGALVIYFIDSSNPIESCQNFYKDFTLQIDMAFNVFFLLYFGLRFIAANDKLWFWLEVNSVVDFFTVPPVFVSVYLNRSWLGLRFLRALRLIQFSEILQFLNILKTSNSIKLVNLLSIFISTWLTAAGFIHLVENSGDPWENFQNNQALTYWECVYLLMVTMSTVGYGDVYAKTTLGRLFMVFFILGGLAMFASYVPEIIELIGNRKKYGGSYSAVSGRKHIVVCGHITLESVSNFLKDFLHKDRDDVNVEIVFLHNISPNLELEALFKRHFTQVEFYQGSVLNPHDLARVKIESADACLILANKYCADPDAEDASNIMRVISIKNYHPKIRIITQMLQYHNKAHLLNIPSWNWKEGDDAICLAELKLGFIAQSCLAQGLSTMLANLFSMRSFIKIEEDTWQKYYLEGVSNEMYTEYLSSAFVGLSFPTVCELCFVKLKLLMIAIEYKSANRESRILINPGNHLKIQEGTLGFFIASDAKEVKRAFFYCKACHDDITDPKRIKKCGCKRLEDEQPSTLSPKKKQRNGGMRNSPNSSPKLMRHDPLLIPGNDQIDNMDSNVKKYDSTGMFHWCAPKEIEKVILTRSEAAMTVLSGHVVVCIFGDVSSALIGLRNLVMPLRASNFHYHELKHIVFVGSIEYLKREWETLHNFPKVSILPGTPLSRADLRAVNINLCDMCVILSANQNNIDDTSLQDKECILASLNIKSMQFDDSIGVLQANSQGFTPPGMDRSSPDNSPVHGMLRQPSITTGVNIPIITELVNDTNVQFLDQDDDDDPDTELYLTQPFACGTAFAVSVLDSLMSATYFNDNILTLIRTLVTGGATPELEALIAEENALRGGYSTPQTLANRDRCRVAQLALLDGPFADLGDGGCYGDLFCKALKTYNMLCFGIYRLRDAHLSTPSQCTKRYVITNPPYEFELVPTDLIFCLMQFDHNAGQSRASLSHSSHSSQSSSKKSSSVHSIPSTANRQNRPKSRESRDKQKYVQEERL

Molecule | IC50 [1, 4] | Inactivation of BK currents by peptide [1] | IC50Last5ms: concentration of the peptide that produced half maximal block in BKα current amplitude in the last 5 ms of a pulse to +160 mV (inside-out HEK patches, 1 μM Ca2+) [3] | other results
CC[C@H](C)[C@H](NC(=O)[C@H](CCSC)NC(=O)[C@H](CCCCN)NC(=O)[C@H](CC[S+](C)[O-])NC(=O)[C@H](CC(N)=O)NC(=O)[C@H](Cc1ccccc1)NC(=O)[C@H](CCCNC(=N)N)NC(=O)[C@H](CCCNC(=N)N)NC(C)=O)C(N)=O (stereo partly drawn) [Ac-RRFNM(O)KMI-NH2] (Ac-RRFN[Met(O)]KMI-NH2) | 6900 ± 500 nM | slower than that of the WT peptide |  | IC50Last5ms increase compared to WT LINGO2 peptide [1]: ~27 fold
O[C@@H](CS)[C@@H](O)CS [DTT] |  |  |  | Effect of DTT alone on peak or sustained currents ([2]; 100 μM DTT, 1-5 min, 100 nM Ca2+, 5 to 7 experiments): failed to alter the peak (black circles) or sustained (purple diamonds) currents; Prevention of Ch-T effects by DTT pretreatment / continuous presence ([2]; 100 μM DTT, then with Ch-T 5-7 min, 100 nM Ca2+, 5 to 7 experiments): not prevented; also recorded: the effects of Ch-T were unaltered in the continuous presence of DTT; also recorded: resistant to treatment with the cysteine-specific reducing agent DTT; Reversal of Ch-T effects by DTT coapplication ([2]; 200 μM Ch-T 1-4 min, then Ch-T + DTT 4-7 min, 4 to 7 experiments): unable to reverse the effects of Ch-T
CC[C@H](C)[C@H](NC(=O)[C@H](CC[S+](C)[O-])NC(=O)[C@H](CCCCN)NC(=O)[C@H](CC[S+](C)[O-])NC(=O)[C@H](CC(N)=O)NC(=O)[C@H](Cc1ccccc1)NC(=O)[C@H](CCCNC(=N)N)NC(=O)[C@H](CCCNC(=N)N)NC(C)=O)C(N)=O (stereo partly drawn) [Ac-RRFNM(O)KM(O)I-NH2] (Ac-RRFN[Met(O)]K[Met(O)]I-NH2) | 13900 ± 1100 nM | greatly reduced |  | IC50Last5ms increase compared to WT LINGO2 peptide [1]: ~50 fold; Inactivation of BK currents by peptide ([1]; listed as RRFNM(O)KM(O)I): inactivation was practically abolished at all concentrations tested; Inactivation of BK currents by peptide ([1]; listed as peptide containing Met(O) at both positions): time-dependent inactivation was practically abolished
Ac-RRFNMKMI-NH2 [Ac-RRFNMKMI-NH2] |  | caused inactivation, the rate of which was concentration-dependent |  | 95% Confidence Intervals of IC50Last5ms ([1]; n = 6): 223 to 303 nM; IC50 ([1]; n = 6, read-out: IC50Last5ms (half maximal block of current amplitude in last 5 ms of pulse)): 260 ± 78 nM
CC[C@H](C)[C@H](NC(=O)[C@H](CC[S+](C)[O-])NC(=O)[C@H](CCCCN)NC(=O)[C@H](CCSC)NC(=O)[C@H](CC(N)=O)NC(=O)[C@H](Cc1ccccc1)NC(=O)[C@H](CCCNC(=N)N)NC(=O)[C@H](CCCNC(=N)N)NC(C)=O)C(N)=O (stereo partly drawn) [Ac-RRFNMKM(O)I-NH2] (Ac-RRFNMK[Met(O)]I-NH2) | 2300 ± 700 nM | the rate of inactivation was slower compared to that observed with the WT peptide |  | 95% Confidence Intervals of IC50Last5ms ([1]; n = 5-7): 2000 to 2700 nM
Ac-RRFNMKMI-NH2 [LINGO2 tail peptide Ac-RRFNMKMI-NH2] |  |  | 260 nM | 
Ac-RRFN[Met(O)]K[Met(O)]I-NH2 (SMILES CC[C@H](C)[C@H](NC(=O)[C@H](CCS(C)=O)NC(=O)[C@H](CCCCN)NC(=O)[C@H](CCS(C)=O)NC(=O)[C@H](CC(N)=O)NC(=O)[C@H](Cc1ccccc1)NC(=O)[C@H](CCCNC(=N)N)NC(=O)[C@H](CCCNC(=N)N)NC(C)=O)C(N)=O) [LINGO2 tail peptide Ac-RRFNM(O)KM(O)I-NH2] |  |  | 13900 nM | 
Ac-RRFN[Met(O)]KMI-NH2 (SMILES CC[C@H](C)[C@H](NC(=O)[C@H](CCSC)NC(=O)[C@H](CCCCN)NC(=O)[C@H](CCS(C)=O)NC(=O)[C@H](CC(N)=O)NC(=O)[C@H](Cc1ccccc1)NC(=O)[C@H](CCCNC(=N)N)NC(=O)[C@H](CCCNC(=N)N)NC(C)=O)C(N)=O) [LINGO2 tail peptide Ac-RRFNM(O)KMI-NH2] |  |  | 6900 nM | 
Ac-RRFNMK[Met(O)]I-NH2 (SMILES CC[C@H](C)[C@H](NC(=O)[C@H](CCS(C)=O)NC(=O)[C@H](CCCCN)NC(=O)[C@H](CCSC)NC(=O)[C@H](CC(N)=O)NC(=O)[C@H](Cc1ccccc1)NC(=O)[C@H](CCCNC(=N)N)NC(=O)[C@H](CCCNC(=N)N)NC(C)=O)C(N)=O) [LINGO2 tail peptide Ac-RRFNMKM(O)I-NH2] |  |  | 2300 nM | 
